Read-outs that look alike come from different tables or passages of the source.
Experiments:
[1] = test system: ARH-77; experiment: Six-day cell proliferation assay (CellTiter-Glo); format: cell-based; details: Homo sapiens, 144 h; ARH-77 (EBV+ lymphoblastoid), 6 days; read-out: Average day 6 gIC50
Procedure: (§1) Six-day cell proliferation assay
(§2) Optimal cell seeding density was determined empirically for each cell lines by examining the gro wth of a wide ran ge o f seedin g densities in a 3 84-well formatto identify conditio ns that permitted maximal and continued proliferation for 6 days. Cells were plat ed in duplicate plates 24 hours before treatment with a 20- point two-fold dilution series of compound or 0.15%
(§3) DMSO. Plates were incubated for 6 da ys at 37°C in 5% CO2. Cells were th en l ysed with CellTiter-Glo (CTG) (Pr omega) and chemiluminescent sign al was detected with an appropriat e microplate reader. In addition, an untreated plate of cells was harvested at the time of compound addition (T0) to quantif y the initial cell densit y. CTG values obtained after 6 days of treatment were expressed as a percent of the T0 value and plotted against compound concentration. […]
(§4) Supplementary Table S 3. […] A p anel […]
(§5) of cell lines was treated with EZM2302fo r 6da ys in a proliferation ass a y. Cell densit y (as assessed b y CellTiter-Gl o) at da y 0 was compared to day 6 to det ermine growth IC 50 values , calculated us i n g a f our parameter dose response equation.
(§6) Cell Type According to Cell Type Category Cell L ine Name gIC50 Average day 6 Standard Replicates
(§7) Supplier Modifier gIC50 (nM) Deviation […]
(§8) Burkitt lymphoma lymphoma NC-37 > 7331 0 2 […]

[2] = test system: DB; experiment: Six-day cell proliferation assay (CellTiter-Glo); format: cell-based; details: Homo sapiens, 144 h; DB (GCB DLBCL), 6 days; read-out: Average day 6 gIC50
Procedure: as §1, §2, §3, §4, §5, §6, §7, §8

[3] = test system: DOHH-2; experiment: Six-day cell proliferation assay (CellTiter-Glo); format: cell-based; details: Homo sapiens, 144 h; DOHH-2 (tFL), 6 days; read-out: Average day 6 gIC50
Procedure: as §1, §2, §3, §4, §5, §6, §7, §8

[4] = test system: EJM; experiment: Six-day cell proliferation assay (CellTiter-Glo); format: cell-based; details: Homo sapiens, 144 h; EJM (MM), 6 days; read-out: Average day 6 gIC50
Procedure: as §1, §2, §3, §4, §5, §6, §7, §8

[5] = test system: HT; experiment: Six-day cell proliferation assay (CellTiter-Glo); format: cell-based; details: Homo sapiens, 144 h; HT (GCB DLBCL), 6 days; read-out: Average day 6 gIC50
Procedure: as §1, §2, §3, §4, §5, §6, §7, §8

[6] = test system: HuNS1; experiment: Six-day cell proliferation assay (CellTiter-Glo); format: cell-based; details: 144 h; HuNS1 (Transformed B-lymphoblastoid), 6 days; read-out: Average day 6 gIC50
Procedure: as §1, §2, §3, §4, §5, §6, §7, §8

[7] = test system: JM1; experiment: Six-day cell proliferation assay (CellTiter-Glo); format: cell-based; details: Homo sapiens, 144 h; JM1 (B-cell lymphoma), 6 days; read-out: Average day 6 gIC50
Procedure: as §1, §2, §3, §4, §5, §6, §7, §8

[8] = test system: KASUMI-1; experiment: Six-day cell proliferation assay (CellTiter-Glo); format: cell-based; details: Homo sapiens, 144 h; KASUMI-1 (AML), 6 days; read-out: Average day 6 gIC50
Procedure: as §1, §2, §3, §4, §5, §6, §7, §8

[9] = test system: KMS-11; experiment: Six-day cell proliferation assay (CellTiter-Glo); format: cell-based; details: Homo sapiens, 144 h; KMS-11 (Myeloma), 6 days; read-out: Average day 6 gIC50
Procedure: as §1, §2, §3, §4, §5, §6, §7, §8

[10] = test system: KMS-12BM; experiment: Six-day cell proliferation assay (CellTiter-Glo); format: cell-based; details: Homo sapiens, 144 h; KMS-12BM (MM, Bone marrow), 6 days; read-out: Average day 6 gIC50
Procedure: as §1, §2, §3, §4, §5, §6, §7, §8

[11] = test system: KMS-12PE; experiment: Six-day cell proliferation assay (CellTiter-Glo); format: cell-based; details: Homo sapiens, 144 h; KMS-12PE (MM, Pleural effusion), 6 days; read-out: Average day 6 gIC50
Procedure: as §1, §2, §3, §4, §5, §6, §7, §8

[12] = test system: MC/CAR; experiment: Six-day cell proliferation assay (CellTiter-Glo); format: cell-based; details: 144 h; MC/CAR (EBV+ B-lymphoblastoid), 6 days; read-out: Average day 6 gIC50
Procedure: as §1, §2, §3, §4, §5, §6, §7, §8

[13] = test system: MM.1R; experiment: Six-day cell proliferation assay (CellTiter-Glo); format: cell-based; details: 144 h; MM.1R (MM), 6 days; read-out: Average day 6 gIC50
Procedure: as §1, §2, §3, §4, §5, §6, §7, §8

[14] = test system: MOLP-2; experiment: Six-day cell proliferation assay (CellTiter-Glo); format: cell-based; details: 144 h; MOLP-2 (MM), 6 days; read-out: Average day 6 gIC50
Procedure: as §1, §2, §3, §4, §5, §6, §7, §8

[15] = test system: MOLP-8; experiment: Six-day cell proliferation assay (CellTiter-Glo); format: cell-based; details: Homo sapiens, 144 h; MOLP-8 (MM), 6 days; read-out: Average day 6 gIC50
Procedure: as §1, §2, §3, §4, §5, §6, §7, §8

[16] = test system: NCI-H929; experiment: Six-day cell proliferation assay (CellTiter-Glo); format: cell-based; details: Homo sapiens, 144 h; NCI-H929 (MM), 6 days; read-out: Average day 6 gIC50
Procedure: as §1, §2, §3, §4, §5, §6, §7, §8

[17] = test system: REC-1; experiment: Six-day cell proliferation assay (CellTiter-Glo); format: cell-based; details: Homo sapiens, Rec1, 144 h; REC-1 (B-NHL), 6 days; read-out: Average day 6 gIC50
Procedure: as §1, §2, §3, §4, §5, §6
Supplier Modifier gIC50 (nM) Deviation

[18] = Plasma protein binding (equilibrium dialysis), rat plasma; format: in vitro ADME; details: Sprague-Dawley, pH 7.4
Procedure: Hepatocyte stability, plasma protein binding and cytochrome P450 assays were performed using standard procedures. Details can be found in Supplementary Methods. […]
Plasma protein binding was assessed b y equilibrium dial ysis, utilizing the HT-dial ysis cell format with a cellulose semi- permeable membran e (molecular wei ght cut-off of 5000 Da).
(pH 7.4) and 100% mixed gender pooled human, pooled male CD -1 mouse or Sprague-Dawle y rat plasma. The buffer solution was added to one s ide of the membrane and the plasma solution to the other side. Incubations were performed in duplicate for 16 h, at 37°C, in order to allow the compounds to reach equi librium. Haloperidol was incubated in parallel as the control compound for each speci es. At the end of the incubation time, samples were taken from both sides of the membrane. Following protein precipitation, the samples were anal yz ed b y LC-MS/MS using two sets of calibration standards for protein free (7 poi nts) and protein containi ng solutions (6 points). Samples were quantified using standard curves prepared in the equivalent matrix. The fraction unbound in plas ma (fu) was calculated us ing the followin g equ ation: […]

[19] = target: hERG channel (Homo sapiens, UniProt Q12809); experiment: hERG channel current inhibition; format: biochemical; details: read-out: IC50 against hERG channel current inhibition
Sequence of hERG channel (Q12809 whole entry): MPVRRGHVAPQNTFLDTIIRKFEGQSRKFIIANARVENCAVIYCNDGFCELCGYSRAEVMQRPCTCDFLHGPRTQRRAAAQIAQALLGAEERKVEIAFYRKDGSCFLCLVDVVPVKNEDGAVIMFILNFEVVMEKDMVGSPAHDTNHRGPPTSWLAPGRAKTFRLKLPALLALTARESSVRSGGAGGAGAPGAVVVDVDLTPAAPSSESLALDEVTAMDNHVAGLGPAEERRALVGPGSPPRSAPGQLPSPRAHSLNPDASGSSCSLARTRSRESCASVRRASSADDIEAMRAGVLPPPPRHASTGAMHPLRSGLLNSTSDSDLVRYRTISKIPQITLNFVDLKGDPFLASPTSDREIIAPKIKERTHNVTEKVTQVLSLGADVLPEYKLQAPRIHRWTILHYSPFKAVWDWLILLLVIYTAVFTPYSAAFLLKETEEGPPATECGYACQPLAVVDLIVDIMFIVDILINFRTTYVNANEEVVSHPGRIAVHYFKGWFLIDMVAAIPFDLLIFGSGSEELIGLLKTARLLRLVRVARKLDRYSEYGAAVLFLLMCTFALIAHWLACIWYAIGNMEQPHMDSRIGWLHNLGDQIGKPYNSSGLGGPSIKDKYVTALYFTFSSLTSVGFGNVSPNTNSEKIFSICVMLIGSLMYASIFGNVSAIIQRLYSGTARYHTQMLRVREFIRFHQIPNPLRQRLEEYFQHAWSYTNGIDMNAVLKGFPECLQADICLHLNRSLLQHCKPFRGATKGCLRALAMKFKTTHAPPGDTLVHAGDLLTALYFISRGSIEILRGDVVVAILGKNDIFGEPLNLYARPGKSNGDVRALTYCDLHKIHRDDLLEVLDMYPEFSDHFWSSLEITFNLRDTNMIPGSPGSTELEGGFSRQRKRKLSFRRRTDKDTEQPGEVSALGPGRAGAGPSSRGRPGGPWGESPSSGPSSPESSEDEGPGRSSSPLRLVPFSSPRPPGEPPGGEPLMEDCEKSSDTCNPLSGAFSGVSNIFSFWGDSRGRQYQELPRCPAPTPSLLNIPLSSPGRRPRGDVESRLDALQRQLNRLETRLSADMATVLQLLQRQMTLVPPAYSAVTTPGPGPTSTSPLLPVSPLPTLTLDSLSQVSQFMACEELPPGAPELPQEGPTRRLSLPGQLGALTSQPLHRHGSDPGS

[20] = test system: 55 receptors, ion channels and transporters; experiment: ExpresSProfile (CEREP) screen; format: binding; details: 10 μM
Description: […]. […] […]. […] […].

[21] = test system: PABP1 and SmB methylation in U266B1 cells; experiment: Western blot of cellular methyl marks, U266B1; details: 96 h
Procedure: Methylation changes were measured at the well-characterized CARM1 substrates PABP1 and SmB[1],[10]. Changes in overall levels of asymmetric dimethyl arginine (aDMA) were assessed with an antibody that detects a generic aDMA motif. Levels of methylated analytes were quantified by densitometry and ratios of methylated to total protein were calculated to determine the cell biochemical IC50 values.
Cultured cells in linear/log phase growth were split to a seeding density of 2e5 cells/mL in 2–20mLs of media, depending on the yield required at the end of the growth period. Compound was diluted in DMSO and added to each culture vessel with a final DMSO concentration of 0.2%. Cells were allowed to grow for 96 hours. At the conclusion of each treatment period, cells were harvested by centrifugation (5 minutes, 1200 rpm), and cell pellets were rinsed once with PBS before being frozen on dry ice pending further processing.
Quantification of Western blots was performed using infra-red emitting secondary antibodies and detection with an ODYSSEY infrared imaging system.

## CNC[C@@H](O)COc1ccc(Cl)c(-c2nc(-c3c(C)noc3C)c(C)c(N3CC4(CCN(C(=O)OC)CC4)C3)n2)c1 [EZM2302]
[1]
  IC50: > 4.27 µM
[2]
  IC50: > 7.33 µM
[3]
  IC50: 0.468 µM
[4]
  IC50: > 20.2 µM
[5]
  IC50: > 7.33 µM
[6]
  IC50: > 19 µM
[7]
  IC50: > 7.33 µM
[8]
  IC50: 13.3 µM
[9]
  IC50: > 18.2 µM
[10]
  IC50: > 15.5 µM
[11]
  IC50: > 17.9 µM
[12]
  IC50: 0.241 µM
[13]
  IC50: 0.216 µM
[14]
  IC50: > 30.7 µM
[15]
  IC50: 6.62 µM
[16]
  IC50: 0.862 µM
[17]
  IC50: > 7.33 µM
[18]
  fraction unbound at 16 h, 5 µM: 0.74
[19]
  IC50: > 100 µM
[20]
  inhibition or stimulation in any of the assays except KOP receptor: ≤ 40%
[21]; read-out: IC50, PABP1me2a
  IC50: 0.022 µM
[21]; read-out: IC50, SmBme0
  IC50: 0.02 µM

From publication PMC5740082, “Identification of a CARM1 Inhibitor with Potent In Vitro and In Vivo Activity in Preclinical Models of Multiple Myeloma” (Scientific Reports, 2017)
